According to patent publication EP1077981B1, “NOVEL CEPHALOSPORIN COMPOUNDS, PROCESSES FOR PREPARATION THEREOF AND ANTIMICROBIAL COMPOSITIONS CONTAINING THE SAME” (LG CHEMICAL LIMITED, priority 1998, dated 1999):
≈ marks a conversion by molar mass, not a printed value. Where two headings read alike, the source gives them in different places.

How the values were obtained:
E. coli = assay: MIC against standard strains (agar dilution); assay type: cell-based; conditions: Escherichia coli, Mueller-Hinton agar, 10^7 cfu/mℓ, 20 hours at 37°C
Experimental: (§1) Test example 1: Measurement of Minimum Inhibitory Concentration (MIC)
(§2) Specifically, test compounds were diluted by 2-fold dilution method and dispersed in Mueller-Hinton agar medium and then, 2µℓ of test strains were inoculated at a concentration of 10^7 cfu(colony forming unit)/mℓ on the medium and incubated for 20 hours at 37°C.

H. influenzae = assay: MIC against standard strains (agar dilution); assay type: cell-based; conditions: Haemophilus influenzae
Experimental: as §1, §2

P. vulgaris = assay: MIC against standard strains (agar dilution); assay type: cell-based; conditions: Proteus vulgaris, Mueller-Hinton agar, 10^7 cfu/mℓ, 20 hours at 37°C
Experimental: as §1, §2

S. aureus = assay: MIC against standard strains (agar dilution); assay type: cell-based; conditions: Staphylococcus aureus, Mueller-Hinton agar, 10^7 cfu/mℓ, 20 hours at 37°C
Experimental: as §1, §2

S. pneumoniae = assay: MIC against standard strains (agar dilution); assay type: cell-based; conditions: Streptococcus pneumoniae, Mueller-Hinton agar, 10^7 cfu/mℓ, 20 hours at 37°C
Experimental: as §1, §2

[1] = Pharmacokinetic experiment (blood concentration by HPLC); assay type: in vivo, mice; conditions: mice, 20mg/kg; for AUC / half-life: male, mouse, blood
Experimental: Test example 2: Pharmacokinetic experiment
Male mice, each of which has a body weight of […] were used in the present pharmacokinetic experiment. Test compounds were formulated into 1% of solution and then, the solution was administered by oral route and by injection with a dose of 20mg/kg, respectively. At the fixed interval of time after administration, blood was gathered from the mice. Concentrations of test compounds in blood were measured by HPLC quantitative analysis and based on the results, pharmacokinetic parameters were calculated.

| AUC ([1]; Oral administration) [ng·h/mL] | half-life ([1]; Oral administration) [h] | maximum conc. ([1]; Oral administration) [µg/mL] | MIC (H. influenzae; H. influenzae, Mueller-Hinton agar, 10^7 cfu/mℓ, 20 hours at 37°C, read-out: MIC) [µg/mL] | half-life ([1]; intravenous injection) [h] | SMILES | MIC (E. coli) [µg/mL] | MIC (H. influenzae; 20 h) [µg/mL] | MIC (P. vulgaris) [µg/mL] | MIC (S. aureus) [µg/mL] | MIC (S. pneumoniae) [µg/mL] | AUC ([1]; intravenous, Injection) [ng·h/mL] | half-life ([1]; intravenous, Injection) [h] |
| --- | --- | --- | --- | --- | --- | --- | --- | --- | --- | --- | --- | --- |
| – | – | – | – | – | CO/N=C(\C(=O)NC1C(=O)N2C(C(=O)O)=C(SCSc3ncccn3)CSC12)c1csc(N)n1 (stereo not shown) [compound 1, 7-[(Z)-2-(2-amino-thiazol-4-yl)-2-methoxyimino-acetylamino]-8-oxo-3-(pyrimidin-2-ylsulfanylmethylsulfanyl)-5-thia-1-aza-bicyclo[4,2,0]oct-2-ene-2-carboxylic acid] | 0.13 (≈ 0.241 µM) | 0.008 (≈ 0.0148 µM) | 0.063 (≈ 0.117 µM) | 0.5 (≈ 0.927 µM) | 0.5 (≈ 0.927 µM) | – | – |
| – | – | – | – | – | CO/N=C(\C(=O)NC1C(=O)N2C(C(=O)O)=C(SCc3cc(N)nc(N)n3)CSC12)c1csc(N)n1 (stereo not shown) [compound 20, 7-[(Z)-2-(2-amino-1,3-thiazol-4-yl)-2-methoxyimino-acetylamino]-3-(2,4-diaminopyrimidin-6-ylmethylsulfanyl)-8-oxo-5-t hia-1-aza-bicyclo[4,2,0]oct-2-ene-2-carboxylic acid] | 0.031 (≈ 0.0577 µM) | 0.031 (≈ 0.0577 µM) | 0.016 (≈ 0.0298 µM) | 2 (≈ 3.72 µM) | 2 (≈ 3.72 µM) | – | – |
| – | – | – | – | – | Nc1cc(N)nc(SCSC2=C(C(=O)O)N3C(=O)C(NC(=O)/C(=N\O)c4csc(N)n4)C3SC2)n1 (stereo not shown) [compound 5, 7-[(Z)-2-(2-amino-thiazol-4-yl)-2-hydroxyimino-acetylamino]-3-(4,6-diamino-pyrimidin-2-ylsulfanylmethylsulfanyl)-8-oxo-5-thia-1-aza-bicyclo[4,2,0]oct-2-ene-2-carboxylic acid] | 0.063 (≈ 0.113 µM) | 0.25 (≈ 0.45 µM) | 0.031 (≈ 0.0558 µM) | 0.13 (≈ 0.234 µM) | 1 (≈ 1.8 µM) | – | – |
| – | – | – | – | – | CO/N=C(\C(=O)NC1C(=O)N2C(C(=O)O)=C(SCSc3cc(N)nc(N)n3)CSC12)c1nc(N)sc1Cl (stereo not shown) [compound 8, 7-[(Z)-2-(2-amino-5-chloro-thiazol-4-yl)-2-methoxyimino-acetylamino]-3-(2,6-diamino-pyrimidin-4-ylsulfanylmethylsulfanyl)-8-oxo-5-thia-1-aza-bicyclo[4,2,0]oct-2-ene-2-carboxylic acid] | 0.25 (≈ 0.414 µM) | 0.031 (≈ 0.0513 µM) | 0.25 (≈ 0.414 µM) | 0.25 (≈ 0.414 µM) | 0.13 (≈ 0.215 µM) | – | – |
| 6380 | 1.23 | 2.9 | 0.25 (≈ 0.632 µM) | 0.35 | C=CC1=C(C(=O)O)N2C(=O)[C@@H](NC(=O)/C(=N\O)c3csc(N)n3)[C@H]2SC1 [Cefdinir, reference compound] | 0.016 (≈ 0.0405 µM) | – | 0.031 (≈ 0.0784 µM) | 0.031 (≈ 0.0784 µM) | 4 (≈ 10.1 µM) | 50000 | 0.35 |
| – | – | – | – | – | CO/N=C(\C(=O)NC1C(=O)N2C(C(=O)O)=C(SCSc3nccc(N)n3)CSC12)c1csc(N)n1 (stereo not shown) [Compound No. 2, 7-[(Z)-2-(2-amino-thiazol-4-yl)-2-methoxyimino-acetylamino]-8-oxo-3-(4-amino-pyrimidin-2-ylsulfanylmethylsulfanyl)-5-t hia-1-aza-bicyclo[4,2,0]oct-2-ene-2-carboxylic acid] | 0.063 (≈ 0.114 µM) | 0.008 (≈ 0.0144 µM) | 0.031 (≈ 0.0559 µM) | 0.5 (≈ 0.901 µM) | 0.25 (≈ 0.451 µM) | – | – |
| – | – | – | – | – | CO/N=C(\C(=O)NC1C(=O)N2C(C(=O)O)=C(SCSc3nc(N)cc(N)n3)CSC12)c1csc(N)n1 (stereo not shown) [compound 3, 7-[(Z)-2-(2-amino-thiazol-4-yl)-2-methoxyimino-acetylamino]-3-(4,6-diamino-pyrimidin-2-ylsulfanylmethylsulfanyl)-8-oxo-5-thia-1-aza-bicyclo[4,2,0]oct-2-ene-2-carboxylic acid] | 0.063 (≈ 0.111 µM) | 0.016 (≈ 0.0281 µM) | 0.016 (≈ 0.0281 µM) | 0.5 (≈ 0.878 µM) | 0.25 (≈ 0.439 µM) | – | – |
| – | – | – | – | – | Nc1cc(SCSC2=C(C(=O)O)N3C(=O)C(NC(=O)/C(=N\O)c4csc(N)n4)C3SC2)nc(N)n1 (stereo not shown) [compound 6, 7-[(Z)-2-(2-amino-thiazol-4-yl)-2-hydroxyimino-acetylamino]-3-(2,6-diamino-pyrimidin-4-ylsulfanylmethylsulfanyl)-8-oxo-5-thia-1-aza-bicyclo[4,2,0]oct-2-ene-2-carboxylic acid] | 0.031 (≈ 0.0558 µM) | 0.5 (≈ 0.9 µM) | 0.031 (≈ 0.0558 µM) | 0.13 (≈ 0.234 µM) | 0.5 (≈ 0.9 µM) | – | – |
| 6320 | 1.15 | 3.2 | – | – | CO/N=C(\C(=O)NC1C(=O)N2C(C(=O)O)=C(SCc3cnc(N)nc3N)CSC12)c1csc(N)n1 (stereo not shown) [compound 19, 7-[(Z)-2-(2-amino-1,3-thiazol-4-yl)-2-methoxyimino-acetylamino]-3-(2,4-diaminopyrimidin-5-ylmethylsulfanyl)-8-oxo-5-t hia-1-aza-bicyclo[4,2,0]oct-2-ene-2-carboxylic acid] | – | – | – | – | – | – | – |
| – | – | – | – | – | CO/N=C(\C(=O)NC1C(=O)N2C(C(=O)O)=C(SCSc3cc(N)nc(N)n3)CSC12)c1csc(N)n1 (stereo not shown) [compound 4, 7-[(Z)-2-(2-amino-thiazol-4-yl)-2-methoxyimino-acetylamino]-3-(2,6-diamino-pyrimidin-4-ylsulfanylmethylsulfanyl)-8-oxo-5-thia-1-aza-bicyclo[4,2,0]oct-2-ene-2-carboxylic acid] | 0.063 (≈ 0.111 µM) | 0.008 (≈ 0.014 µM) | 0.016 (≈ 0.0281 µM) | 0.25 (≈ 0.439 µM) | 0.13 (≈ 0.228 µM) | – | – |

| SMILES | AUC ([1]; Oral administration) [ng·h/mL] | half-life ([1]; Oral administration) [h] | maximum conc. ([1]; Oral administration) [µg/mL] | MIC (H. influenzae; H. influenzae, Mueller-Hinton agar, 10^7 cfu/mℓ, 20 hours at 37°C, read-out: MIC) [µg/mL] | half-life ([1]; intravenous injection) [h] | MIC (E. coli) [µg/mL] | MIC (H. influenzae; 20 h) [µg/mL] | MIC (P. vulgaris) [µg/mL] | MIC (S. aureus) [µg/mL] | MIC (S. pneumoniae) [µg/mL] | AUC ([1]; intravenous, Injection) [ng·h/mL] | half-life ([1]; intravenous, Injection) [h] |
| --- | --- | --- | --- | --- | --- | --- | --- | --- | --- | --- | --- | --- |
| Nc1cc(SCSC2=C(C(=O)O)N3C(=O)C(NC(=O)/C(=N\O)c4nc(N)sc4Cl)C3SC2)nc(N)n1 (stereo not shown) [compound 7, 7-[(Z)-2-(2-amino-5-chloro-thiazol-4-yl)-2-hydroxyimino-acetylamino]-3-(2,6-diamino-pyrimidin-4-ylsulfanylmethylsulfanyl)-8-oxo-5-thia-1-aza-bicyclo[4,2,0]oct-2-ene-2-carboxylic acid] | 59900 | 2.8 | 13.8 | – | – | 0.25 (≈ 0.424 µM) | 0.13 (≈ 0.22 µM) | 0.25 (≈ 0.424 µM) | 0.13 (≈ 0.22 µM) | 0.25 (≈ 0.424 µM) | 107000 | 2.32 |
